Experimental findings from patent US12570687B2, “Triterpenoid compounds, pharmaceutical compositions thereof, and their use for treating a nuclear receptor subfamily 4 group a member 1-mediated disease” (NUCMITO PHARMACEUTICALS COMPANY LIMITED, priority 2019, dated 2026) are described below.

Molecules are shown by their SMILES.

Common to all, as to format: cell-based
Assay [1] has as its system MDA-MB-231 (breast cancer). In words: MTT antiproliferative assay, MDA-MB-231. Particulars: Homo sapiens, MDA-MB-231, 10 μM, 48 or 72 h, read-out: inhibition of cell growth, MDA-MB-231. The method, boiled down:
(§1)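 Cells grown in 10% FBS medium (DMEM; MEM for HeLa; F-12K for A549) were treated 48 or 72 h at 37 °C with 0.137–100 μM or a single 10 μM. Viability was read by MTT absorbance at 490 nm relative to DMSO vehicle. Values are binned as percent growth inhibition at 10 μM.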
In general terms: Formazan colour is commonly taken as a measure of viable cells.

The subject of assay [2] is HeLa (ovarian cancer). In words: MTT antiproliferative assay, HeLa. To be noted: Homo sapiens, 48 or 72 h, read-out: inhibition of cell growth, HELA. Summed up:
as §1

Assay [3] relates to SW620 (colon cancer). In words: MTT antiproliferative assay, SW620. To be noted: Homo sapiens, SW-620, SW620, 10 μM, 48 or 72 h, read-out: inhibition of cell growth, SW620. The method, boiled down: as §1
In assay [4] the test system is A549 (lung adenocarcinoma). In words: MTT antiproliferative assay, A549. Particulars: Homo sapiens, A549, 10 μM, 48 or 72 h, read-out: inhibition of cell growth, A549. The method, boiled down:
as §1

In assay [5] the test system is A431 (epidermoid carcinoma). In words: MTT antiproliferative assay, A431. Particulars: Homo sapiens, A-431, A431, 10 μM, 48 or 72 h, read-out: inhibition of cell growth, A431. The method, boiled down: as §1
Assay [6] concerns A375 (malignant melanoma). In words: MTT antiproliferative assay, A375. Particulars: Homo sapiens, A-375, A375, 10 μM, 48 or 72 h, read-out: inhibition of cell growth, A375. Summed up: as §1
For assay [7], the system named is HepG2 (liver cancer). In words: MTT antiproliferative assay, HepG2. To be noted: Homo sapiens, HepG2, 10 μM, 48 or 72 h, read-out: inhibition of cell growth, HepG2. The method, boiled down: as §1

Usually inhibition stands for the change of the read-out against control, counted positive when it falls. Take `COC(=O)[C@]1(C)CC[C@]2(C)CC[C@]3(C)C4=CC=C5C(=CC(=O)/C(=C/C#N)C5(C)O)[C@]4(C)CC[C@@]3(C)[C@@H]2C1` (stereo partly drawn) [Compound A34, methyl (2R,4aS,6aS,10E,12bR,14aS,14bR)-10-(cyanomethylidene)-9-hydroxy-2,4a,6a,9,12b,14a-hexamethyl-11-oxo-1,2,3,4,4a,5,6,6a,9,10,11,12b,13,14,14a,14b-hexadecahydropicene-2-carboxylate]: the inhibition at 10 µM in assay [1] is at least 80%; in assay [2], at least 80%; in assay [3], at least 80%; in assay [4] it was 50 to 80%; in assay [5], 50 to 80%; in assay [6], 50 to 80%. The inhibition at 10 µM in assay [7] is at least 80%.

Regarding `COC(=O)[C@]1(C)CC[C@]2(C)CC[C@]3(C)C4=CC=C5C(=CC(=O)C(O)C5(C)O)[C@]4(C)CC[C@@]3(C)[C@@H]2C1` (stereo partly drawn) [Compound A35, methyl (2R,4aS,6aS,12bR,14aS,14bR)-9,10-dihydroxy-2,4a,6a,9,12b,14a-hexamethyl-11-oxo-1,2,3,4,4a,5,6,6a,9,10,11,12b,13,14,14a,14b-hexadecahydropicene-2-carboxylate], the inhibition at 10 µM in assay [1] is at least 80%; in assay [2], at least 80%; in assay [3], at least 80%; in assay [4] it was at least 80%; in assay [5], at least 80%; in assay [6], 50 to 80%. Further, in assay [7], the inhibition at 10 µM is at least 80%.

For `COC(=O)[C@]1(C)CC[C@]2(C)CC[C@]3(C)C4=CC=C5C(=C/C(=C\C#N)C(=O)C5(C)O)[C@]4(C)CC[C@@]3(C)[C@@H]2C1` (stereo partly drawn) [Compound A37, methyl (2R,4aS,6aS,11E,12bR,14aS,14bR)-11-(cyanomethylidene)-9-hydroxy-2,4a,6a,9,12b,14a-hexamethyl-10-oxo-1,2,3,4,4a,5,6,6a,9,10,11,12b,13,14,14a,14b-hexadecahydropicene-2-carboxylate], the inhibition at 10 µM in assay [1] is at least 80%; in assay [2] it was at least 80%; in assay [3], 50 to 80%; in assay [4] it was below 30%; in assay [5] it was at least 80%; in assay [6], 30 to 50%. For the same compound, the inhibition at 10 µM in assay [7] lay within 30 to 50%.

As to `CC12OCCOC1(O)C(=O)C=C1C2=CC=C2[C@@]1(C)CC[C@@]1(C)[C@@H]3C[C@](C)(C(=O)O)CC[C@]3(C)CC[C@]21C` (stereo partly drawn) [Compound A43, (6bS,8aS,11R,12aR,12bS,14aR)-16a-hydroxy-4a,6b,8a,11,12b,14a-hexamethyl-16-oxo-2,3,4a,6b,7,8,8a,9,10,11,12,12a,12b,13,14,14a,16,16a-octadecahydropiceno[3,4-b][1,4]dioxine-11-carboxylic acid], the inhibition at 10 µM in assay [1], in assay [2], in assay [3], in assay [4], in assay [5] and in assay [6] was below 30% each time. For the same compound, the inhibition at 10 µM in assay [7] is below 30%.

For `CO[C@]1(C)C(=O)C(=O)C=C2C1=CC=C1[C@@]2(C)CC[C@@]2(C)[C@@H]3C[C@](C)(C(=O)NCCO)CC[C@]3(C)CC[C@]12C` [Compound A44, (2R,4aS,6aS,9S,12bR,14aS,14bR)—N-(2-hydroxyethyl)-9-methoxy-2,4a,6a,9,12b,14a-hexamethyl-10,11-dioxo-1,2,3,4,4a,5,6,6a,9,10,11,12b,13,14,14a,14b-hexadecahydropicene-2-carboxamide], the inhibition at 10 µM in assay [1] was at least 80%; in assay [2], at least 80%; in assay [3] it was 50 to 80%; in assay [4], at least 80%; in assay [5], at least 80%; in assay [6], 30 to 50%. In assay [7], the inhibition at 10 µM is at least 80%.
